# Measurements taken from ChEMBL document CHEMBL1139050, “Specific interactions with intra- and intermolecular G-quadruplex DNA structures by hydrosoluble coronene derivatives: a new class of telomerase inhibitors” (Bioorg Med Chem, 2007).
# Target: Telomerase reverse transcriptase (Homo sapiens) (UniProt O14746)
# Test: Inhibition of telomerase at 10 uM after 30 mins by TRAP assay
# Sequence of Telomerase reverse transcriptase (Homo sapiens) (O14746 whole entry): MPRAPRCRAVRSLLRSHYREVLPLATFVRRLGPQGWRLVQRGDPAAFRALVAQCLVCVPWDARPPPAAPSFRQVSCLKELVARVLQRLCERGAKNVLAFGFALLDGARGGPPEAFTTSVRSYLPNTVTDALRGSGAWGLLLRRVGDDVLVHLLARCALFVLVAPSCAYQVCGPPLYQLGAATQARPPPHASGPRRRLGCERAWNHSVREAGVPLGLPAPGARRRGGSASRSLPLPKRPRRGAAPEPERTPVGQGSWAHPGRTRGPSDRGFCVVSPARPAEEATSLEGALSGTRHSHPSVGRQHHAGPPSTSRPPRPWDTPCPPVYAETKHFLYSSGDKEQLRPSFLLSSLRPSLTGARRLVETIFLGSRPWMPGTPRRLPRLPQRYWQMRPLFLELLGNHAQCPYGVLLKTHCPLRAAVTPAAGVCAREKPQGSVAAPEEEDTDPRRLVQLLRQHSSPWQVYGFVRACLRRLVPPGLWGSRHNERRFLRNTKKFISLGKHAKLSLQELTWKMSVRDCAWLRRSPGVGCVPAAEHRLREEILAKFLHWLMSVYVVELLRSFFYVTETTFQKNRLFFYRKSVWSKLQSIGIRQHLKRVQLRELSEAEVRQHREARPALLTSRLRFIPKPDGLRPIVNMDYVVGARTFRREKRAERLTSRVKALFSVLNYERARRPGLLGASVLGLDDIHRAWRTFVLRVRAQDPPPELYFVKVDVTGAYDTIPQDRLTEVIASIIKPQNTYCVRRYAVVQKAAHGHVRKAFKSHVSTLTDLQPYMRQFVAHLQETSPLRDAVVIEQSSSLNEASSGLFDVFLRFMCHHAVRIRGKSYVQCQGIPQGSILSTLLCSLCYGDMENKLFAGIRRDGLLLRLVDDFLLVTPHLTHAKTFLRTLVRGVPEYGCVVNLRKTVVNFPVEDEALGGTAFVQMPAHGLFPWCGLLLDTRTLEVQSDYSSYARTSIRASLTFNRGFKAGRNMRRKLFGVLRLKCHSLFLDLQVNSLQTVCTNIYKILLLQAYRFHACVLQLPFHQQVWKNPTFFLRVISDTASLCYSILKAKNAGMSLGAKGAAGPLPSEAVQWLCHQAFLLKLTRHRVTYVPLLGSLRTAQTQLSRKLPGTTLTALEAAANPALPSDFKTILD
row,SMILES,inhibition [%]
1,CN1CCN(CCc2cc3cc4c(=O)n(CCN5CCCCC5)c(=O)c5cc6c(CCN7CCN(C)CC7)cc7cc8c(=O)n(CCN9CCCCC9)c(=O)c9cc2c2c3c(c45)c6c7c2c89)CC1,44
2,CN(C)CCCn1c(=O)c2cc3cc(CCN4CCN(C)CC4)c4cc5c(=O)n(CCCN(C)C)c(=O)c6cc7cc(CCN8CCN(C)CC8)c8cc(c1=O)c2c1c3c4c(c65)c7c81,66
3,CN(C)CCCn1c(=O)c2cc3cc(CCN4CCCCC4)c4cc5c(=O)n(CCCN(C)C)c(=O)c6cc7cc(CCN8CCCCC8)c8cc(c1=O)c2c1c3c4c(c65)c7c81,52
4,O=c1c2cc3cc(CCN4CCCCC4)c4cc5c(=O)n(CCN6CCCCC6)c(=O)c6cc7cc(CCN8CCCCC8)c8cc(c(=O)n1CCN1CCCCC1)c2c1c3c4c(c65)c7c81,38
